Target: AMPK
Assay: AMPK activation, enzyme-linked immunosorbent assay
Type: biochemical
Conditions: Table 8, compounds of Table 1
How it was run: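 AMPK activation by test compounds was measured by enzyme-linked immunosorbent assay.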

EC50	Structure (SMILES)
< 0.1 µM	COC(=O)c1ccc(CN2CCC(NC(=O)c3ccc(OC4CCN(c5ccc(C#N)cc5)CC4)cn3)CC2)cc1 [Compound 1-7, methyl 4-((4-(5-(1-(4-cyanophenyl)piperidin-4-yloxy)picolinamido)piperidin-1-yl)methyl)benzoate]
0.1 to 0.5 µM	N#Cc1ccc(CN2CC(NC(=O)c3ccc(OC4CCN(c5ccc(C(F)(F)F)cc5)CC4)cn3)C2)cc1 [Compound 1-41, N-(1-(4-cyanobenzyl)azetidin-3-yl)-5-(1-(4-(trifluoromethyl)phenyl)piperidin-4-yloxy)picolinamide]
< 0.1 µM	N#Cc1ccc(CN2CCC(NC(=O)c3sc4cc(OC5CCN(c6ccc(C(F)(F)F)cc6)CC5)ccc4c3Cl)CC2)cc1 [Compound 1-154, 3-chloro-N-(1-(4-cyanobenzyl)piperidin-4-yl)-6-(1-(4-(trifluoromethyl)phenyl)piperidin-4-yloxy)benzo[b] thiophene-2-carboxamide]
0.1 to 0.5 µM	FC(F)(F)c1ccc(N2CCC(Oc3ccc4c(c3)CCC4NC3CCN(Cc4ccncc4)CC3)CC2)cc1 (centres unmarked) [Compound 1-158, 1-(pyridin-4-ylmethyl)-N-(5-(1-(4-(trifluoromethyl)phenyl)piperidin-4-yloxy)-2,3-dihydro-1H-inden-1-yl)piperidin-4-amine]
0.1 to 0.5 µM	N#Cc1ccc(CN2CCC(NC(=O)c3ccnc(OC4CCN(c5ccc(C(F)(F)F)cc5)CC4)c3)CC2)cc1 [Compound 1-21, N-(1-(4-cyanobenzyl)piperidin-4-yl)-2-(1-(4-(trifluoromethyl)phenyl)piperidin-4-yloxy) isonicotinamide]
0.1 to 0.5 µM	O=C(NC1CCN(Cc2ccccn2)CC1)c1sc2cc(OC3CCN(c4ccc(C(F)(F)F)cc4)CC3)ccc2c1Cl [Compound 1-153, 3-chloro-N-(1-(pyridin-2-ylmethyl)piperidin-4-yl)-6-(1-(4-(trifluoromethyl)phenyl)piperidin-4-yloxy)benzo[b] thiophene-2-carboxamide]
0.1 to 0.5 µM	O=C(NC1CCN(Cc2ccncc2)CC1)c1cc2cc(OC3CCN(c4ccc(C(F)(F)F)cc4)CC3)ccc2o1 [Compound 1-76, N-(1-(pyridin-4-ylmethyl)piperidin-4-yl)-5-(1-(4-(trifluoromethyl)phenyl)piperidin-4-yloxy)benzofuran-2-carboxamide]
> 10 µM	O=C(NC1CCNCC1)c1sc2cc(OC3CCN(c4ccc(C(F)(F)F)cc4)CC3)ccc2c1Cl [Compound 1-148, 3-chloro-N-(piperidin-4-yl)-6-(1-(4-(trifluoromethyl)phenyl)piperidin-4-yloxy)benzo [b]thiophene-2-carboxamide]
0.1 to 0.5 µM	NC(=O)c1ccc(CN2CCC(Oc3ccc4oc(C(=O)NC5CCN(Cc6ccccc6)CC5)cc4c3)CC2)cc1 [Compound 1-116, N-(1-benzylpiperidin-4-yl)-5-(1-(4-carbamoylbenzyl)piperidin-4-yloxy)benzofuran-2-carboxamide]

Same assay, conditions: Table 9, compounds of Table 2

EC50	Structure (SMILES)
5 to 10 µM	O=C(NC1CCN(Cc2ccc(C(F)(F)F)cc2)CC1)c1ccc2[nH]c3c(c2c1)CN(c1ccc(F)cc1)CC3 [Compound 2-37, 2-(4-fluorophenyl)-N-(1-(4-(trifluoromethyl)benzyl)piperidin-4-yl)-2,3,4,5-tetrahydro-1H-pyrido[4,3-b]indole-8-carboxamide]

Same assay, conditions: Table 11, compounds of Table 4

EC50	Structure (SMILES)
1 to 5 µM	O=C(NC1CCN(Cc2ccc(Cl)cc2)C1)c1ccc(C(=O)N2CCN(c3ccc(Cl)cc3)CC2)cn1 (centres unmarked) [Compound 4-7, N-(1-(4-chlorobenzyl)pyrrolidin-3-yl)-5-(4-(4-chlorophenyl)piperazine-1-carbonyl)picolinamide]

Same assay, conditions: Table 12, compounds of Table 5

EC50	Structure (SMILES)
< 1 µM	O=C(NC1CCN(Cc2ccccc2)CC1)c1ccc(OC2CCN(Cc3ccc(OC(F)(F)F)cc3)CC2)c(Cl)c1 [Compound 5-54, N-(1-benzylpiperidin-4-yl)-3-chloro-4-(1-(4-(trifluoromethoxy)benzyl)piperidin-4-yloxy)benzamide]
< 1 µM	O=C(NC1CCN(Cc2ccccc2)CC1)c1ccc(OC2CCN(c3ccc(C(F)(F)F)cc3)CC2)c(Cl)c1 [Compound 5-17]
< 1 µM	CC(C)S(=O)(=O)N1CCC(NC(=O)c2ccc(OC3CCN(c4ccc(C(F)(F)F)cc4)CC3)c(F)c2)CC1 [Compound 5-34, 3-fluoro-N-(1-(isopropylsulfonyl)piperidin-4-yl)-4-(1-(4-(trifluoromethyl)phenyl)piperidin-4-yloxy)benzamide]
< 1 µM	N#Cc1ccc(CN2CCC(Oc3ccc(C(=O)NC4CCN(Cc5ccc(Cl)cc5)CC4)cc3F)CC2)cc1 [Compound 5-70, N-(1-(4-chlorobenzyl)piperidin-4-yl)-4-(1-(4-cyanobenzyl)piperidin-4-yloxy)-3-fluorobenzamide]
< 1 µM	O=C(NC1CCN(Cc2ccccc2)CC1)c1ccc(OC2CCN(Cc3ccncc3)CC2)c(Cl)c1 [Compound 5-6, N-(1-benzylpiperidin-4-yl)-3-chloro-4-(1-(pyridin-4-ylmethyl)piperidin-4-yloxy)benzamide]
< 1 µM	COc1ccc(CN2CCC(NC(=O)c3cccc(OC4CCN(Cc5ccc(Oc6ccc(C#N)cc6)cc5)CC4)c3)CC2)cc1 [Compound 5-113, 3-(1-(4-(4-cyanophenoxy)benzyl)piperidin-4-yloxy)-N-(1-(4-methoxybenzyl)piperidin-4-yl)benzamide]

Same assay, conditions: Table 13, compounds of Table 6

EC50	Structure (SMILES)
0.1 to 1 µM	N#Cc1ccc(CN2CCC(NC(=O)c3cc4cc(NC(=O)c5ccc(Oc6ccc(C#N)cn6)cc5)ccc4o3)CC2)cc1 [Compound 6-71, N-(1-(4-cyanobenzyl)piperidin-4-yl)-5-(4-(5-cyanopyridin-2-yloxy)benzamido)benzofuran-2-carboxamide]
< 0.1 µM	N#Cc1ccc(CN2CCC(NC(=O)c3cc4cc(NC(=O)C5CCN(c6ccc(C#N)cn6)CC5)ccc4o3)CC2)cc1 [Compound 6-70, N-(2-(1-(4-cyanobenzyl)piperidin-4-ylcarbamoyl)benzofuran-5-yl)-1-(5-cyanopyridin-2-yl)piperidine-4-carboxamide]
1 to 10 µM	N#Cc1ccc(CN2CCC(NC(=O)c3cc4cc(C(=O)NC5CCN(Cc6ccn(-c7ccc(C#N)cc7)n6)CC5)ccc4o3)CC2)cc1 [Compound 6-91, N2-(1-(4-cyanobenzyl)piperidin-4-yl)-N5-(1-((1-(4-cyanophenyl)-1H-pyrazol-3-yl)methyl)piperidin-4-yl)benzofuran-2,5-dicarboxamide]
0.1 to 1 µM	N#Cc1ccc(CN2CCC(NC(=O)c3cc4cc(C(=O)N5CCC(S(=O)(=O)c6ccc(F)cc6)CC5)ccc4o3)CC2)cc1 [Compound 6-122, N-(1-(4-cyanobenzyl)piperidin-4-yl)-5-(4-(4-fluorophenylsulfonyl)piperidine-1-carbonyl) benzofuran-2-carboxamide]
< 0.1 µM	O=C(NC1CCN(Cc2cc(F)cc(F)c2)CC1)c1cc2cc(CN3CCC(Oc4ccc(C(F)(F)F)cc4)CC3)ccc2o1 [Compound 6-28, N-(1-(3,5-difluorobenzyl)piperidin-4-yl)-5-((4-(4-(trifluoromethyl)phenoxy)piperidin-1-yl)methyl) benzofuran-2-carboxamide]
0.1 to 1 µM	N#Cc1ccc(CN2CCC(NC(=O)c3cc4cc(NC(=O)c5ccc(C#N)cc5)ccc4o3)CC2)cc1 [Compound 6-57]
< 0.1 µM	CC(=O)c1ccc(Oc2ccc(NC(=O)c3cc4ccc(C(=O)N5CCN(Cc6ccc(S(C)(=O)=O)cc6)CC5)cc4o3)cn2)cc1 [Compound 6-6, N-(6-(4-acetylphenoxy)pyridin-3-yl)-6-(4-(4-(methylsulfonyl)benzyl)piperazine-1-carbonyl) benzofuran-2-carboxamide]
0.1 to 1 µM	COc1ccc(CN2CCC(NC(=O)c3cc4cc(NC(=O)c5ccc(Oc6ccc(F)cc6)cc5)ccc4o3)CC2)cc1 [Compound 6-23, 5-(4-(4-fluorophenoxy)benzamido)-N-(1-(4-methoxybenzyl)piperidin-4-yl)benzofuran-2-carboxamide]

Same assay, conditions: Table 14, compounds of Table 7

EC50	Structure (SMILES)
1 to 10 µM	COc1ccc(CN2CCC(NC(=O)c3ccc(C(=O)N4CCC(Oc5ccc(S(C)(=O)=O)c(C)c5)CC4)nc3)CC2)cc1 [Compound 7-16, N-(1-(4-methoxybenzyl)piperidin-4-yl)-6-(4-(3-methyl-4-(methylsulfonyl)phenoxy)piperidine-1-carbonyl) nicotinamide]
1 to 10 µM	COc1ccc(C(=O)C2CCCN(C(=O)c3ccc(C(=O)Nc4ccc(Oc5ccc(C(C)=O)cc5)nc4)cn3)C2)cc1 (centres unmarked) [Compound 7-11, N-(6-(4-acetylphenoxy)pyridin-3-yl)-6-(3-(4-methoxybenzoyl)piperidine-1-carbonyl)nicotinamide]
< 1 µM	O=C(NC1CCN(Cc2ccc(OC(F)(F)F)cc2)CC1)c1ccc(C(=O)N2CCC(Oc3cccc(NC(=O)C4CC4)c3)CC2)nc1 [Compound 7-108, 6-(4-(3-(cyclopropanecarboxamido)phenoxy)piperidine-1-carbonyl)-N-(1-(4-(trifluoromethoxy)benzyl)piperidin-4-yl)nicotinamide]
< 1 µM	COc1ccc(C(=O)C2CCN(C(=O)c3ccc(C(=O)NC4CCN(Cc5ccc(C#N)cc5)CC4(C)C)cn3)CC2)cc1 (centres unmarked) [Compound 7-84, N-(1-(4-cyanobenzyl)-3,3-dimethylpiperidin-4-yl)-6-(4-(4-methoxybenzoyl)piperidine-1-carbonyl)nicotinamide]
1 to 10 µM	Cc1cc(OC2CCN(C(=O)c3ccc(C(=O)NC4CCN(Cc5ccc(OC(F)(F)F)cc5)CC4)cn3)CC2)ccc1S(C)(=O)=O [Compound 7-14, 6-(4-(3-methyl-4-(methylsulfonyl)phenoxy)piperidine-1-carbonyl)-N-(1-(4-(trifluoromethoxy)benzyl)piperidin-4-yl)nicotinamide]
< 1 µM	COc1ccc(CN2CCC(NC(=O)c3ccc(C(=O)N4CCC(C(=O)c5ccc(N6CCCC6)cc5)CC4)nc3)CC2)cc1 [Compound 7-109, N-(1-(4-methoxybenzyl)piperidin-4-yl)-6-(4-(4-(pyrrolidin-1-yl)benzoyl)piperidine-1-carbonyl)nicotinamide]
< 1 µM	CS(=O)(=O)c1ccc(OC2CCN(C(=O)c3ccc(C(=O)Nc4ccc(Oc5ccc(S(F)(F)(F)(F)F)cc5)nc4)nc3)CC2)cc1 [Compound 7-2, 5-(4-(4-(methylsulfonyl)phenoxy)piperidine-1-carbonyl)-N-(6-(4-(pentafluorosulfanyl)phenoxy)pyridin-3-yl)picolinamide]

Reference: patent publication US9409884B2 (Rigel Pharmaceuticals, Inc., priority 2012, dated 2016)
